# In PMC12396409, “Screening and hit evaluation of a microbial metabolite library against the pathogenic Plasmodium falciparum and Toxoplasma gondii parasites” (International Journal for Parasitology: Drugs and Drug …, 2025):
# Where two headings read alike, the source gives them in different places.
# Experiments:
# [1] = tested on: P. falciparum 3D7 parasites; assay: P. falciparum growth inhibition assay, 1-cycle (72 h treatment), SYBR DNA staining (library screen at 2 μg/mL and dose-response); assay type: cell-based, Plasmodium falciparum; conditions: for activity at 2 µg/mL: Plasmodium falciparum; for activity at 2 µg/mL / Pf_72h_%Growth_Rep1 / Pf_72h_%Growth_Rep2: 72 h
# [2] = tested on: P. falciparum 3D7 parasites; assay: P. falciparum growth inhibition assay, 2-cycle (120 h treatment), delayed-death screen and dose-response; assay type: cell-based, Plasmodium falciparum; conditions: 120 h; for activity at 2 µg/mL: Plasmodium falciparum
# [3] = tested on: T. gondii RH strain (RH-Tub-eYFP) tachyzoites; assay: microbe, parasite or virus in culture; assay type: cell-based, Toxoplasma gondii
# [4] = P. falciparum, screen at 2 μg/mL, replicate 1
# [5] = P. falciparum, screen at 2 μg/mL, replicate 2
# [6] = Toxoplasma gondii, 72 h, T. gondii, 72 h, parasite screen 2 μg/mL, % growth, replicate 1; read-out: Tg_72h_%Growth_Rep1
# [7] = Toxoplasma gondii, 72 h, T. gondii, 72 h, parasite screen 2 μg/mL, % growth, replicate 2; read-out: Tg_72h_%Growth_Rep2
# [8] = active against the parasite at 2 μg/mL, no anti-tumour (NS-1) or cytotoxic (fibroblast) activity at 5 μg/mL
# [9] = library screen at 2 μg/mL, % growth, replicate 1
# [10] = library screen at 2 μg/mL, % growth, replicate 2
# [11] = library screen at 2 μg/mL, 72 h, % growth, replicate 1
# [12] = library screen at 2 μg/mL, 72 h, % growth, replicate 2
structure (smiles),measurement,setting,value
COc1ccc2c3c4n(c2c1)[C@H](C=C(C)C)OOC(C)(C)C[C@@H]4N1C(=O)[C@@H]2CCCN2C(=O)[C@]1(O)[C@H]3O [Verruculogen],activity at 2 µg/mL,"[1]; 3D7, P. falciparum, screen at 2 μg/mL, replicate 1, read-out: Pf_72h_%Growth_Rep1",58.1%
same,activity at 2 µg/mL,"[1]; 3D7, P. falciparum, screen at 2 μg/mL, replicate 2, read-out: Pf_72h_%Growth_Rep2",88.5%
same,activity at 2 µg/mL,"[2]; 3D7, P. falciparum, screen at 2 μg/mL, replicate 1, read-out: Pf_120h_%Growth_Rep1",144%
same,activity at 2 µg/mL,"[2]; 3D7, P. falciparum, screen at 2 μg/mL, replicate 2, read-out: Pf_120h_%Growth_Rep2",80.6%
same,percent parasite growth at 2 µg/mL,"[3]; Toxoplasma gondii; T. gondii, 72 h, screen at 2 μg/mL, replicate 1; read-out: Tg_72h_%Growth_Rep1",92.4%
same,percent parasite growth at 2 µg/mL,"[3]; Toxoplasma gondii; T. gondii, 72 h, screen at 2 μg/mL, replicate 2; read-out: Tg_72h_%Growth_Rep2",102%
C/C=C(\C)c1cc(O)c(C)c2c1Oc1cc(O)cc(C)c1C(=O)O2 [Unguinol],Pf_72h_%Growth_Rep1,[1]; [4],95.05%
same,Pf_72h_%Growth_Rep2,[1]; [5],130.12%
same,Pf_120h_%Growth_Rep1,[2]; [4],111.35%
same,Pf_120h_%Growth_Rep2,[2]; [5],108.43%
same,Tg_72h_%Growth_Rep1,"[3]; T. gondii, 72 h, screen at 2 μg/mL, replicate 1",147.94%
same,Tg_72h_%Growth_Rep2,"[3]; T. gondii, 72 h, screen at 2 μg/mL, replicate 2",82.86%
CCCC[C@]1([C@H](/C=C/C(C)=C/C(=O)O)OC(=O)CCC(=O)O)CC[C@]2(CC[C@H](C)[C@@H](C/C=C(C)/C=C/[C@H](O)[C@@H](C)/C=C/C(=O)O)O2)O1 [Reveromycin B],activity at 2 µg/mL,"[1]; 3D7, 72 h, P. falciparum, parasite screen 2 μg/mL, % growth, replicate 1, read-out: Pf_72h_%Growth_Rep1",89%
same,activity at 2 µg/mL,"[1]; 3D7, 72 h, P. falciparum, parasite screen 2 μg/mL, % growth, replicate 2, read-out: Pf_72h_%Growth_Rep2",114%
same,activity at 2 µg/mL,"[2]; 3D7, 120 h, P. falciparum, parasite screen 2 μg/mL, % growth, replicate 1, read-out: Pf_120h_%Growth_Rep1",78.2%
same,activity at 2 µg/mL,"[2]; 3D7, 120 h, P. falciparum, parasite screen 2 μg/mL, % growth, replicate 2, read-out: Pf_120h_%Growth_Rep2",133%
same,percent parasite growth at 2 µg/mL,[3]; [6],139%
same,percent parasite growth at 2 µg/mL,[3]; [7],87.7%
"Nc1ncnc2c1ncn2[C@@H]1O[C@H](C[C@@H](N)CC[C@H](N)C(=O)O)[C@@H](O)[C@H]1O [sinefungin, reference compound]",activity at 2 µg/mL,"[1]; 3D7, P. falciparum, parasite screen 2 μg/mL, % growth, replicate 1, read-out: Pf_72h_%Growth_Rep1",17.1%
same,activity at 2 µg/mL,"[1]; 3D7, P. falciparum, parasite screen 2 μg/mL, % growth, replicate 2, read-out: Pf_72h_%Growth_Rep2",12.1%
same,selectivity for P. falciparum in the screens,[1]; [8],also active
same,activity at 2 µg/mL,"[2]; 3D7, P. falciparum, parasite screen 2 μg/mL, % growth, replicate 1, read-out: Pf_120h_%Growth_Rep1",13.4%
same,activity at 2 µg/mL,"[2]; 3D7, P. falciparum, parasite screen 2 μg/mL, % growth, replicate 2, read-out: Pf_120h_%Growth_Rep2",-3.05%
same,percent parasite growth at 2 µg/mL,[3]; [6],7.22%
same,percent parasite growth at 2 µg/mL,[3]; [7],12.7%
same,selectivity for T. gondii in the screens,[3]; [8],also active
CC[C@H]1CCC[C@H](O)[C@@H](C)C(=O)C2=C[C@H]3[C@@H]4C[C@H](O)C[C@H]4CC[C@H]3[C@@H]2CC(=O)O1 [Dihydrospinosyn A aglycone],IC50,"[1]; 3D7, 72 h treatment, mean ± S.D., n ≥ 3, read-out: IC50 (μM), P. falciparum",> 1 µM
same,Screen (P. falciparum),"[1]; library screen at 2 μg/mL, 3D7, 72 h, DD from the 120 h timepoint",I
same,Pf_72h_%Growth_Rep1,[1]; [9],96.92%
same,Pf_72h_%Growth_Rep2,[1]; [10],105.46%
same,Pf_120h_%Growth_Rep1,[2]; [9],88.50%
same,Pf_120h_%Growth_Rep2,[2]; [10],102.89%
same,Tg_72h_%Growth_Rep1,[3]; [11],141.87%
same,Tg_72h_%Growth_Rep2,[3]; [12],82.63%
CC(=O)N[C@H]1CCOC1=O [Acetyl-L-homoserine lactone],Pf_72h_%Growth_Rep1,[1]; [9],5.19%
same,Pf_72h_%Growth_Rep2,[1]; [10],20.05%
same,Pf_120h_%Growth_Rep1,[2]; [9],2.96%
same,Pf_120h_%Growth_Rep2,[2]; [10],5.45%
same,Tg_72h_%Growth_Rep1,[3]; [11],88.39%
same,Tg_72h_%Growth_Rep2,[3]; [12],103.34%
O=C(O)/C=C/c1ccc(O)c(O)c1 [Caffeic acid],activity at 2 µg/mL,"[1]; 3D7, 72 h, P. falciparum, screen at 2 μg/mL, replicate 1, read-out: Pf_72h_%Growth_Rep1",83.7%
same,activity at 2 µg/mL,"[1]; 3D7, 72 h, P. falciparum, screen at 2 μg/mL, replicate 2, read-out: Pf_72h_%Growth_Rep2",86%
same,activity at 2 µg/mL,"[2]; 3D7, 120 h, P. falciparum, screen at 2 μg/mL, replicate 1, read-out: Pf_120h_%Growth_Rep1",144%
same,activity at 2 µg/mL,"[2]; 3D7, 120 h, P. falciparum, screen at 2 μg/mL, replicate 2, read-out: Pf_120h_%Growth_Rep2",88.4%
same,percent parasite growth at 2 µg/mL,"[3]; Toxoplasma gondii, 72 h, T. gondii, 72 h, screen at 2 μg/mL, replicate 1; read-out: Tg_72h_%Growth_Rep1",101%
same,percent parasite growth at 2 µg/mL,"[3]; Toxoplasma gondii, 72 h, T. gondii, 72 h, screen at 2 μg/mL, replicate 2; read-out: Tg_72h_%Growth_Rep2",88.3%
